According to PMC12554172, “Systematic analysis of the RGS2 degron reveals characteristics of substrate recognition by the F-box protein FBXO44” (The Journal of Biological Chemistry, 2025):
Peptide text beside a SMILES is read from it.

Legend:
FBXO44^FBA [1] = molecular target: T1, FBXO44^FBA (Homo sapiens, UniProt Q9H4M3); experiment: Surface plasmon resonance, immobilized RGS2^5–16 peptide; details: Biacore X100; peptide immobilized on CM5 chip by amine coupling; FBXO44^FBA analyte 0.29–75 μM, contact time 60 s; nonlinear fit of saturation binding; preliminary
T1 construct: we expressed and purified only this domain for all in vitro studies; 6xHis (N, cleaved yes); MBP (N, cleaved yes); made in house; host or cells: Escherichia coli Rosetta BL21 (λDE3)
T1 sequence (Q9H4M3 71-252 limits assumed): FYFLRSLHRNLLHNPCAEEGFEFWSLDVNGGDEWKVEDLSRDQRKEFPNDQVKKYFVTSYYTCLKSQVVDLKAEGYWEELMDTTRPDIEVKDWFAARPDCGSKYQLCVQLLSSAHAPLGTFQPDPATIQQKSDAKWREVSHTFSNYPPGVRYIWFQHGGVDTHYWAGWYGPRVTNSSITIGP
Description: (§1) However, evidence of a direct interaction between RGS2 and FBXO44 has, until now, not yet been established. Thus, we first aimed to verify that purified FBXO44 would bind the degron sequence in vitro. […] This also circumvented the issue that full-length FBXO44 (as well as all other F-box proteins) is very difficult to express in the absence of an adaptor protein, such as Skp1 ([30]). To test the ability of the FBA domain to bind the RGS2 degron specifically, a peptide corresponding to residues Met^5–Met^16 (MFLAVQHDRCPM; herein referred to as RGS2^5–16; Fig. 1A) was dotted onto a polyvinylidene difluoride (PVDF) membrane at increasing amounts (Fig. 1B). […] The membrane was then incubated with FLAG-tagged FBXO44 FBA domain (FBXO44^FBA) and subjected to immunoblotting using a FLAG antibody. […] To get an estimate of the binding affinity between FBXO44^FBA, we next performed surface plasmon resonance (SPR) with the RGS2^5–16 peptide anchored on the chip and FBXO44^FBA as the analyte.
RGS2^5–16 peptide was immobilized onto a CM5 chip (Cytiva; BR100012) using amine coupling (Cytiva; BR100557) following the manufacturer's protocol. RGS2^5–16 peptide (150 μg/ml) in 10 mM NaOAc, pH 4.0, was loaded into the Biacore X100 sample rack. […] The RU at equilibrium was subtracted from the nonspecific binding detected in Fc1 and measured for each concentration. […]

FBXO44^FBA [2] = molecular target: T1, FBXO44^FBA; experiment: Dot blot of FLAG-FBXO44^FBA binding to immobilized peptide; details: peptide spotted on PVDF at increasing amounts; 2 μg/ml FLAG-FBXO44^FBA overnight at 4 °C; anti-FLAG
Description: as §1
Figure 1 A peptide representing the degron in RGS2 binds FBXO44^FBAin vitro.A, sequence and schematic of the RGS2^5–16 peptide. B, a representative dot blot showing binding of FBXO44^FBA to immobilized RGS2^5–16 peptide. […] The RU at equilibrium was subtracted from the nonspecific binding detected in Fc1 and measured for each concentration. […]

Kd (FBXO44^FBA [1]) [µM] | FLAG immunoreactivity (FBXO44^FBA binding) (FBXO44^FBA [2]) | Molecule
2.09 | – | CSCC[C@H](NC(=O)[C@@H]1CCCN1C(=O)[C@H](CCCNC(=N)N)NC(=O)[C@H](CS)NC(=O)[C@H](CC(=O)O)NC(=O)[C@H](Cc1c[nH]cn1)NC(=O)[C@H](CCC(N)=O)NC(=O)[C@@H](NC(=O)[C@H](C)NC(=O)[C@H](CC(C)C)NC(=O)[C@H](Cc1ccccc1)NC(=O)[C@@H](N)CCSC)C(C)C)C(=O)O [RGS2^5–16] (H-MFLAVQHDCRPM-OH)
– | no signal detected | MCKGLAALPAT [RGS4^1–11, peptide corresponding to the first 11 residues in RGS4, negative control]
